Laboratory results: patent EP1208096B1, “SUBSTITUTED PYRIDAZINES AND FUSED PYRIDAZINES WITH ANGIOGENESIS INHIBITING ACTIVITY” (Bayer Corporation, priority 1999, dated 2001)

Assays:
[1] = biological target: T1, NIH3T3 cells expressing the full length KDR receptor (Homo sapiens, UniProt P35968); assay: Cell mechanistic assay - Inhibition of 3T3 KDR phosphorylation; format: cell-based; settings: VEGF (30 ng / ml) for 10 minutes after 30 minutes with compound; KDR phosphotyrosine ELISA
T1 construct: NIH3T3 cells expressing the full length KDR receptor; expressed in transfected cells; host or cells: NIH3T3 cells (G418 selection)
T1 sequence (P35968 20-1356): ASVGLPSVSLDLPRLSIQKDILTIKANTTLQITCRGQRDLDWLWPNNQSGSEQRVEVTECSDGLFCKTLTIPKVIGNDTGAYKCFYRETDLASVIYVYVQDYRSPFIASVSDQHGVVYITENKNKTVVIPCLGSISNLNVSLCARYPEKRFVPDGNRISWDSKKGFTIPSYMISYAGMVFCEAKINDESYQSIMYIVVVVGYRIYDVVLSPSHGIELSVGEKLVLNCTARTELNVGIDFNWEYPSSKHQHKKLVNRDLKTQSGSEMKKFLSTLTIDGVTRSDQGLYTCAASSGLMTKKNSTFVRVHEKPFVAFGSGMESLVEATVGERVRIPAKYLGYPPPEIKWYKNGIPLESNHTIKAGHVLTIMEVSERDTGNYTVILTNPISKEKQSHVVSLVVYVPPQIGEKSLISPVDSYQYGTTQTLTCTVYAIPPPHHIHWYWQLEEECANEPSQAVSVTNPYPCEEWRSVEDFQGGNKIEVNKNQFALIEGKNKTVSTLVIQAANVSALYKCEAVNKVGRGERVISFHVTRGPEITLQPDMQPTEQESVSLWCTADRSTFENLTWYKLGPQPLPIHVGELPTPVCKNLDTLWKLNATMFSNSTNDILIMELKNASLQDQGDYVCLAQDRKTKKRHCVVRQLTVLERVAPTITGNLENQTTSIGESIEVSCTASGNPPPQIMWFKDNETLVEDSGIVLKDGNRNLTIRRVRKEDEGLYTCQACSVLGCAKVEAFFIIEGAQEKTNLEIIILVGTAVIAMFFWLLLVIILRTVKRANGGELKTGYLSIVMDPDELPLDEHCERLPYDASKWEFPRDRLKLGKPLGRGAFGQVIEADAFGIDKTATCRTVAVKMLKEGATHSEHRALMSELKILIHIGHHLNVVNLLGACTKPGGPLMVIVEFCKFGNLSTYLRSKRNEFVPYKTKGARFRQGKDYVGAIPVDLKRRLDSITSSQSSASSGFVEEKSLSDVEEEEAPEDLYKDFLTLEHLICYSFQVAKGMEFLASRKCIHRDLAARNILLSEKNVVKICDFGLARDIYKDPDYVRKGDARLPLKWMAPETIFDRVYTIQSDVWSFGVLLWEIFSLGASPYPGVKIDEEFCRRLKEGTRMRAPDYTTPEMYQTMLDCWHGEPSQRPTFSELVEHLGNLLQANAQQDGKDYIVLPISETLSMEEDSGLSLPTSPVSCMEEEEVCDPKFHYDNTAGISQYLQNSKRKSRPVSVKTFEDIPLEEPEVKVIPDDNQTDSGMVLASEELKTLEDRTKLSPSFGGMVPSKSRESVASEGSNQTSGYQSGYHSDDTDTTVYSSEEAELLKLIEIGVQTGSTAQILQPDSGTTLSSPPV
Protocol: NIH3T3 cells expressing the full length KDR receptor were grown in DMEM (Life Technologies, Inc., Grand Island, NY) supplemented with 10% newborn calf serum, low glucose, 25 mM /L sodium pyruvate, pyridoxine hydrochloride and 0.2 mg/ ml of G418 (Life Technologies Inc., Grand Island, NY). The cells were maintained in collagen I-coated T75 flasks (Becton Dickinson Labware, Bedford, MA) in a humidified 5% CO2 atmosphere at 37°C.
Fifteen thousand cells were plated into each well of a collagen I-coated 96-well plate in the DMEM growth medium. Six hours later, the cells were washed and the medium was replaced with DMEM without serum. After overnight culture to quiesce the cells, the medium was replaced by Dulbecco's phosphate-buffered saline (Life Technologies Inc., Grand Island, NY) with 0.1% bovine albumin (Sigma Chemical Co., St Louis, MO). After adding various concentrations (0-300 nM) of test compounds to the cells in 1% final concentration of DMSO, the cells were incubated at room temperature for 30 minutes. The cells were then treated with VEGF (30 ng / ml) for 10 minutes at room temperature. Following VEGF stimulation, the buffer was removed and the cells were lysed by addition of 150 µl of extraction buffer (50 mM Tris, pH 7.8, supplemented with 10% glycerol, 50 mM BGP, 2 mM EDTA, 10 mM NaF, 0.5 mM NaVO4, and 0.3% TX-100) at 4°C for 30 minutes.
To assess receptor phosphorylation, 100 microliters of each cell lysate was added to the wells of an ELISA plate precoated with 300 ng of antibody C20 (Santa Cruz Biotechnology, Inc., Santa Cruz , CA). Following a 60-minute incubation, the plate was washed and bound KDR was probed for phosphotyrosine using an anti-phosphotyrosine mAb clone 4G10 (Upstate Biotechnology, Lake Placid, NY). The plate was washed and wells were incubated with anti-mouse IgG/HRP conjugate (Amersham International plc, Buckinghamshire, England) for 60 minutes. Wells were washed and phosphotyrosine was quantitated by addtion of 100 µl per well of 3,3',5,5' tetramethylbenzidine (Kirkegaard and Perry, TMB Microwell 1 Component peroxidase substrate) solution. Color development was arrested by the addition of 100 µl 1% HCl based stop solution (Kirkegaard and Perry, TMB 1 Component Stop Solution).
Optical densities (OD) were determined spectrophotometrically at 450 nm in a 96-well plate reader (SpectraMax 250, Molecular Devices). Background (no VEGF added) OD values were subtracted from all ODs and percent inhibition was calculated according to the equation: % Inhibition =((OD(VEGF control) - OD(with test compound)) X 100)/(OD(VEGF control) - OD(no VEGF added)) [formula]
IC50s were determined with a least squares analysis program using compound concentration versus percent inhibition. Compounds that have IC50 < 20 nM in this assay include those of Examples 2, 6, 7, 11, 15 and 16. Compounds that have IC50 values between 20 nM and 50 nM include those of examples 1, 4, 5, 8, 10, 12, 13 and 14. Those that have measured IC50 values > 50 nM include those of examples 9 and 21.

[2] = tested on: SK-MEL2 human tumor cells that were transfected with a plasmid containing the murine VEGF gene; assay: Matrigel Angiogenesis Model (hemoglobin content of Matrigel plugs); format: in vivo, Mice; settings: 30, 100 and 300 mg/kg po sid; 12 days post-implantation; vs. vehicle control animals
Protocol: Preparation of Matrigel Plugs and in vivo Phase: Matrigel® (Collaborative Biomedical Products, Bedford, MA) is a basement membrane extract from a murine tumor composed primarily of laminin, collagen IV and heparan sulfate proteoglycan. It is provided as a sterile liquid at 4° C, but rapidly forms a solid gel at 37° C.
Liquid Matrigel at 4° C was mixed with SK-MEL2 human tumor cells that were transfected with a plasmid containing the murine VEGF gene with a selectable marker. Tumor cells were grown in vitro under selection and cells were mixed with cold liquid Matrigel at a ratio of 2 X 10^6 per 0.5 ml. […]
Optical densities were determined spectrophotometrically at 600 nm in a 96-well plate reader, SpectraMax 250 Microplate Spectrophotometer System (Molecular Devices, Sunnyvale, CA). Background Lysis Buffer readings were subtracted from all wells.
Total sample hemoglobin content was calculated according to the following equation: Total Hemoglobin = (Sample Lysate Volume) x (Hemoglobin Concentration) [formula]
The average Total Hemoglobin of Matrigel samples without cells was subtracted from each Total Hemoglobin Matrigel sample with cells. Percent inhibition was calculated according to the following equation: % Inhibition =((Average Total Hemoglobin Drug-Treated Tumor Lysates) X 100)/((Average Total Hemoglobin Non-Treated Tumor Lysates)) [formula]

## NC(=O)c1cc(Cc2nnc(Nc3ccc(Cl)cc3)c3ccccc23)ccn1 [Example 2, 4-[4-(4-Chlorophenylamino)phthalazin-1-ylmethyl]pyridin-2-yl carboxylic acid amide]
[1]
  IC50: < 20 nM
[2]
  inhibition of total hemoglobin content of the Matrigel samples: > 50%
